# From ChEMBL document CHEMBL1681648, “Synthesis and in vitro antibacterial activity of oxazolidine LBM-415 analogs as peptide deformylase inhibitors” (2011)
# Key:
# Type in all cases: functional
# Staphylococcus aureus = test: Antimicrobial activity against Staphylococcus aureus 26003 after 24 hrs by agar dilution method; settings: Staphylococcus aureus, 26003, 24 h
# Streptococcus pneumoniae = test: Antimicrobial activity against Streptococcus pneumoniae 31002 after 24 hrs by agar dilution method; settings: Streptococcus pneumoniae, 31002, 24 h
# [1] = Antimicrobial activity against Streptomyces albus 260101 after 24 hrs by agar dilution method; settings: Streptomyces albus, 260101, 24 h
# Shigella boydii = test: Antimicrobial activity against Shigella boydii 51313 after 24 hrs by agar dilution method; settings: Shigella boydii, 51313, 24 h
# Shigella flexneri = test: Antimicrobial activity against Shigella flexneri 92475 after 24 hrs by agar dilution method; settings: Shigella flexneri, 92475, 24 h
MIC (Staphylococcus aureus),MIC (Streptococcus pneumoniae),MIC [1],MIC (Shigella boydii),MIC (Shigella flexneri),Structure (SMILES)
0.78 µg/mL,0.78 µg/mL,1.56 µg/mL,> 6.25 µg/mL,> 6.25 µg/mL,CCCC[C@H](CN(O)C=O)C(=O)N1COC[C@H]1C(=O)NCc1ccccc1
1.56 µg/mL,0.195 µg/mL,0.78 µg/mL,3.13 µg/mL,> 6.25 µg/mL,CCCC[C@H](CN(O)C=O)C(=O)N1CO[C@H](C)[C@H]1C(=O)Nc1ccc(F)cc1
0.78 µg/mL,0.098 µg/mL,0.78 µg/mL,> 6.25 µg/mL,> 6.25 µg/mL,CCCC[C@H](CN(O)C=O)C(=O)N1COC[C@H]1C(=O)Nc1ccc(N2CCOCC2)c(F)c1
0.78 µg/mL,0.195 µg/mL,0.78 µg/mL,> 6.25 µg/mL,> 6.25 µg/mL,CCCC[C@H](CN(O)C=O)C(=O)N1COC[C@H]1C(=O)Nc1ccc(C)cc1
0.78 µg/mL,0.195 µg/mL,1.56 µg/mL,> 6.25 µg/mL,> 6.25 µg/mL,CCCC[C@H](CN(O)C=O)C(=O)N1CO[C@H](C)[C@H]1C(=O)Nc1ccc(N2CCOCC2)c(F)c1
1.56 µg/mL,0.195 µg/mL,0.78 µg/mL,> 6.25 µg/mL,> 6.25 µg/mL,CCCC[C@H](CN(O)C=O)C(=O)N1CO[C@H](C)[C@H]1C(=O)Nc1ccc(F)c[n+]1[O-]
0.78 µg/mL,0.098 µg/mL,0.39 µg/mL,> 6.25 µg/mL,> 6.25 µg/mL,CCCC[C@H](CN(O)C=O)C(=O)N1CO[C@H](C)[C@H]1C(=O)Nc1ccc(N2CCOCC2)c(Cl)c1
1.56 µg/mL,0.195 µg/mL,1.56 µg/mL,> 6.25 µg/mL,> 6.25 µg/mL,CCCC[C@H](CN(O)C=O)C(=O)N1COC[C@H]1C(=O)N[C@@H](C)c1ccccc1
0.78 µg/mL,0.195 µg/mL,0.78 µg/mL,3.13 µg/mL,> 6.25 µg/mL,CCCC[C@H](CN(O)C=O)C(=O)N1COC[C@H]1C(=O)Nc1ccc(F)c[n+]1[O-]
0.39 µg/mL,0.195 µg/mL,0.39 µg/mL,> 6.25 µg/mL,> 6.25 µg/mL,CCCC[C@H](CN(O)C=O)C(=O)N1COC[C@H]1C(=O)Nc1ccccc1
0.39 µg/mL,0.098 µg/mL,0.39 µg/mL,6.25 µg/mL,6.25 µg/mL,CCCC[C@H](CN(O)C=O)C(=O)N1COC[C@H]1C(=O)Nc1ccc(N2CCOCC2)c(Cl)c1
1.56 µg/mL,0.39 µg/mL,0.39 µg/mL,3.13 µg/mL,> 6.25 µg/mL,CCCC[C@H](CN(O)C=O)C(=O)N1CO[C@H](C)[C@H]1C(=O)Nc1ccc(F)cn1
0.39 µg/mL,0.195 µg/mL,0.39 µg/mL,> 6.25 µg/mL,> 6.25 µg/mL,CCCC[C@H](CN(O)C=O)C(=O)N1COC[C@H]1C(=O)Nc1c(F)cccc1F
0.39 µg/mL,0.195 µg/mL,0.39 µg/mL,6.25 µg/mL,> 6.25 µg/mL,CCCC[C@H](CN(O)C=O)C(=O)N1CCC[C@H]1C(=O)Nc1ccc(F)c[n+]1[O-]
1.56 µg/mL,0.098 µg/mL,0.78 µg/mL,> 6.25 µg/mL,> 6.25 µg/mL,CCCC[C@H](CN(O)C=O)C(=O)N1CO[C@H](C)[C@H]1C(=O)Nc1ccc(C)cc1
1.56 µg/mL,0.39 µg/mL,0.78 µg/mL,6.25 µg/mL,> 6.25 µg/mL,CCCC[C@H](CN(O)C=O)C(=O)N1COC[C@H]1C(=O)Nc1ccc(N2CCOCC2)cc1
0.39 µg/mL,0.195 µg/mL,0.39 µg/mL,> 6.25 µg/mL,> 6.25 µg/mL,CCCC[C@H](CN(O)C=O)C(=O)N1COC[C@H]1C(=O)Nc1ccc(F)cc1
0.78 µg/mL,0.098 µg/mL,0.39 µg/mL,3.13 µg/mL,3.13 µg/mL,CCCC[C@H](CN(O)C=O)C(=O)N1COC[C@H]1C(=O)Nc1ccc(F)cn1
0.39 µg/mL,0.195 µg/mL,0.78 µg/mL,> 6.25 µg/mL,> 6.25 µg/mL,CCCC[C@H](CN(O)C=O)C(=O)N1COC[C@H]1C(=O)Nc1ccc(OC)cc1
